Laboratory results reported in ChEMBL document CHEMBL1201862, “PubChem BioAssay data set” (2004).
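1) Cells in 96-well plates. 2) Compound, 48 h, 5 concentrations. 3) Linear interpolation between surrounding doses. 4) Unreached endpoint = highest concentration. The concentration for 50% growth inhibition is given as GI50.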 Activity calls are given as the source filed them. Rule as the data show it: active = GI50 up to about 1.1 µM and inactive = higher.

Experiments:
Assay in all cases: growth of human tumour cells (NCI), 48 h
A549 = test system: A549
CAKI-1 = test system: CAKI-1
COLO 205 = test system: COLO 205
EKVX = test system: EKVX
HCC 2998 = test system: HCC 2998
HL-60 = test system: HL-60
HOP-62 = test system: HOP-62
HT-29 = test system: HT-29
IGROV-1 = test system: IGROV-1
MCF7 = test system: MCF7
MOLT-4 = test system: MOLT-4
NCI-H23 = test system: NCI-H23
NCI-H460 = test system: NCI-H460
OVCAR-5 = test system: OVCAR-5
SF-268 = test system: SF-268
SF-295 = test system: SF-295
SF-539 = test system: SF-539
SK-MEL-2 = test system: SK-MEL-2
SNB-19 = test system: SNB-19
U-251 = test system: U-251

Measured: GI50

NC(Cc1cc(I)c(O)c(I)c1)C(=O)O (stereo unspecified)
inactive: A549 > 500 µM | CAKI-1 45.4 µM | COLO 205 263 µM | EKVX > 316 µM | HCC 2998 > 500 µM | HL-60 185 µM | HOP-62 > 500 µM | HT-29 > 346 µM | IGROV-1 > 500 µM | MCF7 > 394 µM | MOLT-4 401 µM | NCI-H23 > 287 µM | NCI-H460 301 µM | OVCAR-5 > 427 µM | SF-268 > 484 µM | SF-295 > 500 µM | SF-539 > 392 µM | SK-MEL-2 > 500 µM | SNB-19 249 µM | U-251 > 500 µM

CCOC(=O)C(SCCO)C(C(=O)OCC)n1ccc(=O)[nH]c1=O (stereo unspecified)
inactive: A549 > 100 µM | CAKI-1 7.83 µM | COLO 205 17.6 µM | EKVX 75.9 µM | HCC 2998 > 71.8 µM | HL-60 3.16 µM | HOP-62 > 60.7 µM | HT-29 23.5 µM | IGROV-1 31.9 µM | MCF7 23.1 µM | MOLT-4 3.01 µM | NCI-H23 34.3 µM | NCI-H460 57.1 µM | OVCAR-5 22.1 µM | SF-268 35.4 µM | SF-295 > 100 µM | SF-539 31.5 µM | SK-MEL-2 33.7 µM | SNB-19 > 100 µM | U-251 27.6 µM

O=c1cnn(C/C=C\CO)c(=O)[nH]1
inactive: A549 > 100 µM | CAKI-1 > 100 µM | COLO 205 > 100 µM | EKVX > 100 µM | HCC 2998 > 100 µM | HL-60 > 100 µM | HOP-62 > 100 µM | IGROV-1 > 100 µM | MCF7 > 100 µM | NCI-H23 > 100 µM | NCI-H460 > 100 µM | OVCAR-5 > 100 µM | SF-268 > 100 µM | SF-539 > 100 µM | SK-MEL-2 > 100 µM | SNB-19 > 100 µM | U-251 > 100 µM

COC(=O)C1(F)C(=O)NC(=O)NC1O (stereo unspecified)
inactive: A549 90.8 µM | CAKI-1 97.9 µM | COLO 205 40.4 µM | EKVX 99.8 µM | HCC 2998 > 45.9 µM | HL-60 31 µM | HOP-62 > 100 µM | HT-29 > 66.5 µM | IGROV-1 > 100 µM | MCF7 10.7 µM | MOLT-4 31.8 µM | NCI-H23 > 100 µM | NCI-H460 50.6 µM | OVCAR-5 > 100 µM | SF-268 > 100 µM | SF-295 > 100 µM | SF-539 25.4 µM | SK-MEL-2 > 100 µM | SNB-19 > 100 µM | U-251 > 100 µM

COc1ccc(C2c3cc4c(cc3OC(N3CCOCC3)C2C)OCO4)cc1OC (stereo unspecified)
inactive: A549 7.82 µM | CAKI-1 3.07 µM | COLO 205 4.76 µM | EKVX 24.4 µM | HCC 2998 5.53 µM | HL-60 3.06 µM | HOP-62 12 µM | HT-29 4.69 µM | IGROV-1 7.64 µM | MCF7 4.97 µM | MOLT-4 4.48 µM | NCI-H23 20.4 µM | NCI-H460 6.3 µM | OVCAR-5 48.6 µM | SF-268 13.9 µM | SF-295 4.39 µM | SF-539 3.89 µM | SK-MEL-2 5.77 µM | SNB-19 7.18 µM | U-251 5.52 µM

C/C(CC(O)(C(F)(F)F)C(F)(F)F)=N/Nc1ccc([N+](=O)[O-])cc1[N+](=O)[O-]
inactive: A549 2.54 µM | CAKI-1 2.24 µM | COLO 205 2.05 µM | EKVX 2.26 µM | HCC 2998 3.6 µM | HL-60 2.94 µM | HOP-62 2.99 µM | HT-29 2.69 µM | IGROV-1 4.15 µM | MCF7 2.97 µM | MOLT-4 4.4 µM | NCI-H23 2.46 µM | NCI-H460 3.11 µM | SF-268 2.81 µM | SF-295 4.1 µM | SF-539 3.78 µM | SK-MEL-2 2.28 µM | SNB-19 3.27 µM | U-251 2.67 µM

CC1OC(n2cc(F)c(=O)[nH]c2=O)CCC1O (stereo unspecified)
inactive: A549 67.5 µM | CAKI-1 > 91.6 µM | COLO 205 > 87.1 µM | EKVX > 100 µM | HCC 2998 30.1 µM | HL-60 > 79.4 µM | HOP-62 > 87.1 µM | HT-29 98.9 µM | IGROV-1 > 100 µM | MCF7 30.1 µM | MOLT-4 > 100 µM | NCI-H23 > 100 µM | NCI-H460 50.8 µM | OVCAR-5 > 100 µM | SF-268 > 100 µM | SF-295 > 84.5 µM | SF-539 29.2 µM | SK-MEL-2 > 100 µM | SNB-19 > 100 µM | U-251 > 100 µM

O=C1OC(c2ccccc2Br)=N/C1=C/c1ccccc1
inactive: A549 29.6 µM | CAKI-1 35.2 µM | COLO 205 > 10 µM | EKVX > 100 µM | HCC 2998 19.1 µM | HL-60 39 µM | HOP-62 21.5 µM | HT-29 32.1 µM | IGROV-1 39.4 µM | MCF7 57.1 µM | MOLT-4 48.8 µM | NCI-H23 32.8 µM | NCI-H460 42.5 µM | OVCAR-5 40.2 µM | SF-268 31.6 µM | SF-295 34.1 µM | SF-539 18.5 µM | SK-MEL-2 18.8 µM | SNB-19 24.9 µM | U-251 26.6 µM

O=C(/C=C/c1ccccc1)Oc1cccc(O)c1
inactive: A549 46 µM | CAKI-1 49.1 µM | COLO 205 55 µM | HCC 2998 > 100 µM | HL-60 16.9 µM | HOP-62 53.6 µM | HT-29 37.2 µM | IGROV-1 17.3 µM | MCF7 38.7 µM | MOLT-4 6.03 µM | NCI-H23 63.8 µM | NCI-H460 > 100 µM | OVCAR-5 30.3 µM | SF-268 15.5 µM | SF-295 17.8 µM | SF-539 > 100 µM | SK-MEL-2 > 100 µM | SNB-19 20.2 µM | U-251 34.3 µM

CCOC(=O)N/N=C(/N)Cc1ccccc1
inactive: A549 > 100 µM | CAKI-1 > 100 µM | COLO 205 > 100 µM | EKVX > 100 µM | HCC 2998 > 100 µM | HL-60 > 100 µM | HOP-62 > 100 µM | IGROV-1 > 100 µM | MCF7 > 100 µM | MOLT-4 > 100 µM | NCI-H460 > 100 µM | OVCAR-5 > 100 µM | SF-268 > 100 µM | SF-295 > 100 µM | SF-539 > 100 µM | SK-MEL-2 > 100 µM | SNB-19 > 100 µM | U-251 > 10 µM

CC(=O)N(C)SCC(NC(=O)C(Cc1ccccc1)NC(=O)OCc1ccccc1)C(=O)NC(Cc1ccccc1)C(=O)NC(Cc1cn(C=O)c2ccccc12)C(=O)NC(CCCCNC(=O)OCc1ccccc1)C(=O)NC(C(=O)NC(CSN(C)C(C)=O)C(=O)NO)C(C)OCc1ccccc1 (stereo unspecified)
inactive: A549 > 100 µM | COLO 205 > 100 µM | EKVX > 100 µM | HCC 2998 > 100 µM | HL-60 > 100 µM | HOP-62 > 100 µM | HT-29 > 100 µM | IGROV-1 > 100 µM | MCF7 > 100 µM | MOLT-4 > 100 µM | NCI-H23 > 100 µM | NCI-H460 > 100 µM | OVCAR-5 > 100 µM | SF-268 > 100 µM | SF-295 > 100 µM | SF-539 > 100 µM | SK-MEL-2 > 100 µM | SNB-19 > 100 µM | U-251 > 100 µM

COc1ccc(NC2Oc3cc4c(cc3C(c3cc(OC)c(O)c(OC)c3)C2C)OCO4)cc1 (stereo unspecified)
inactive: A549 3.56 µM | CAKI-1 10.4 µM | COLO 205 8.87 µM | HCC 2998 5.22 µM | HL-60 1.79 µM | HT-29 3.82 µM | IGROV-1 5.55 µM | MCF7 5.71 µM | NCI-H23 11.2 µM | NCI-H460 3.83 µM | OVCAR-5 7.66 µM | SF-268 14.7 µM | SF-295 4.78 µM | SF-539 4.2 µM | SK-MEL-2 2.25 µM | SNB-19 21.4 µM | U-251 4.65 µM

C[C@]12CC[C@H](OC(=O)Cc3ccc(N(CCCl)CCCl)cc3)CC1=CC[C@@H]1[C@@H]2CC[C@]2(C)C(=O)CC[C@@H]12
inactive: A549 > 100 µM | CAKI-1 > 100 µM | COLO 205 > 100 µM | EKVX > 100 µM | HCC 2998 > 100 µM | HL-60 > 100 µM | HOP-62 > 100 µM | HT-29 > 100 µM | IGROV-1 > 100 µM | MCF7 > 100 µM | MOLT-4 > 100 µM | NCI-H23 > 100 µM | NCI-H460 > 100 µM | OVCAR-5 > 100 µM | SF-268 > 100 µM | SF-539 > 100 µM | SK-MEL-2 > 100 µM | SNB-19 > 100 µM | U-251 > 100 µM

CSc1nc2c(c(=O)n1C)N=C(c1ccc(Cl)cc1)CC(c1ccccc1)N2 (stereo unspecified)
inactive: A549 25.2 µM | CAKI-1 24.4 µM | COLO 205 21.7 µM | EKVX 20.9 µM | HCC 2998 24.6 µM | HL-60 29 µM | HOP-62 27.6 µM | HT-29 15.6 µM | IGROV-1 18.3 µM | MCF7 14.2 µM | MOLT-4 14.1 µM | NCI-H23 24.1 µM | OVCAR-5 33.8 µM | SF-295 21.3 µM | SF-539 17.9 µM | SK-MEL-2 13.9 µM | SNB-19 36.3 µM | U-251 40.8 µM
